The record followed here is publication PMC11852716, “c-di-GMP phosphodiesterase ProE interacts with quorum sensing protein PqsE to promote pyocyanin production in Pseudomonas aeruginosa” (mSphere, 2025).

This assay addresses T1, ProE (Pseudomonas aeruginosa, UniProt Q9HTQ9).
T1 construct: gene PA5295
Description: surface plasmon resonance. The class given is binding. A general note: Surface plasmon resonance follows binding to a sensor surface in real time, without labels.

T1 sequence (Q9HTQ9 entry or part of it): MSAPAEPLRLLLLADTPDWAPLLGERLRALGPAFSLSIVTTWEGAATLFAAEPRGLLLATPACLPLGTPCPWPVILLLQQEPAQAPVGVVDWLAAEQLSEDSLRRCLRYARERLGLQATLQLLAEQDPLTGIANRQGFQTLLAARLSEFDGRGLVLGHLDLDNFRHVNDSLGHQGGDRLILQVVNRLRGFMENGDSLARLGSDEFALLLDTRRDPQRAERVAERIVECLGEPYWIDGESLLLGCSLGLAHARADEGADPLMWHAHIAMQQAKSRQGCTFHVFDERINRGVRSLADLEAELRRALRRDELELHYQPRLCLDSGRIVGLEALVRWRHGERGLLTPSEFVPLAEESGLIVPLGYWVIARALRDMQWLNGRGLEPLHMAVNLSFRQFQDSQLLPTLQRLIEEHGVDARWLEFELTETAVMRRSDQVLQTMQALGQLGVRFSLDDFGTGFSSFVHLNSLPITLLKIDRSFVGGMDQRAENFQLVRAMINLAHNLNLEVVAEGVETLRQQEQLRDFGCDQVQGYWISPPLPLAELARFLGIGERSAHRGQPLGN

The molecule `Nc1nc2c(ncn2[C@@H]2O[C@@H]3CO[P@](=O)(O)O[C@H]4[C@@H](O)[C@H](n5cnc6c(=O)[nH]c(N)nc65)O[C@@H]4CO[P@](=O)(O)O[C@H]3[C@H]2O)c(=O)[nH]1` [c-di-GMP] returned a dissociation constant (Kd) of 2.72 µM.

Usually Kd stands for a measure of binding affinity in units of concentration. The low end stands for tighter binding, the high end for weaker binding.
